# Assays:
# MSNagA = target: T1, MSNagA (Mycolicibacterium smegmatis, UniProt A0QU89, D267A); experiment: X-ray co-crystal structure, […] Å; format: binding; conditions: active site of chain A at dimer interface, Zn and Cd modelled, ligand occupancy 0.75
# T1 construct: gene nagA; full-length, 385 residues, N-terminal His6 tag; expressed in M. smegmatis mc2 4517 (pYUB1062) for wild-type rows, in E. coli (pET28a) for D267A
# T1 sequence (A0QU89 1-385 D267A): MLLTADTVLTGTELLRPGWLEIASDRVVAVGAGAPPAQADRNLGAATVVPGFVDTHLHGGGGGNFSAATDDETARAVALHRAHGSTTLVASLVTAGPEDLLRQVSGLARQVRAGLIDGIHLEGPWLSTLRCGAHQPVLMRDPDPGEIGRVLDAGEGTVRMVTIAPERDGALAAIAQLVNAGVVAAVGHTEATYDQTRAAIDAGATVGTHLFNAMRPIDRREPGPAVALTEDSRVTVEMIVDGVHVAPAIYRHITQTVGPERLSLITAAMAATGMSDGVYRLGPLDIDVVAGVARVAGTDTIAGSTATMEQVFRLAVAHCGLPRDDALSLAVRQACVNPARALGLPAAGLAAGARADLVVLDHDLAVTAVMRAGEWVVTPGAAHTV
# MMNagA = target: T2, MMNagA (Mycobacterium marinum, UniProt B2HDT2); conditions: read-out: MST Kd; binder
# T2 construct: gene nagA; full-length from gDNA, N-terminal His6 tag (pET28a, NdeI/HindIII), E. coli BL21(DE3) with Mtb GroES chaperone
# T2 sequence (B2HDT2 entry or part of it): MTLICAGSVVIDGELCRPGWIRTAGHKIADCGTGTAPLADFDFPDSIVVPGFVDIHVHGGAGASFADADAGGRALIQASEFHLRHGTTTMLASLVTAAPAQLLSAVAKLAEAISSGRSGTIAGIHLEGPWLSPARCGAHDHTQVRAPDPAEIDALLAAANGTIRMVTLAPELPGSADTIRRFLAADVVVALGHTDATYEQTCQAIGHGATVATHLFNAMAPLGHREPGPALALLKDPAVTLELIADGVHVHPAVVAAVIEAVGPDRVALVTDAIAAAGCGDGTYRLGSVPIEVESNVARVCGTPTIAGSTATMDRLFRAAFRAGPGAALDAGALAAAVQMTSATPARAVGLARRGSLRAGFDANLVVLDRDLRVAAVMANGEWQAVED
Compound,"X-ray co-crystal structure, 2.0 Å (MSNagA)",Kd (MMNagA) [µM]
CC(=O)N[C@H]1C(O)O[C@H](COP(=O)(O)O)[C@@H](O)[C@@H]1O (stereo partly drawn) [GlcNAc6P],6FV4 for the GlcNAc6P-MSNagA co-crystal structure,1200 ± 50
CC(=O)N[C@@H]1C(O)O[C@H](COP(=O)(O)O)[C@@H](O)[C@@H]1O (stereo partly drawn) [ManNAc6P],–,3800 ± 300
